Source: patent US8952024B2, “Herbicidal pyrimidone derivatives” (E I du Pont de Nemours and Company, priority 2009, dated 2015)
Like-named read-outs stand apart in the source and are kept apart here.

What was measured:
Assay type in all cases: in vivo
[1] = tested on: giant foxtail (Setaria faberii); test: Test B pre-/postemergence plant response; details: Setaria faberi, read-out: Plant response rating, Foxtail, Giant; for pest or weed control at 125 g/ha: 125 g ai/ha
Method in brief: (§1)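 Compound in solvent + surfactant applied pre-em (loam/sand) or post-em (plants 2–18 cm, peat medium); greenhouse hold 13–15 days; visual 0–100 control score.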

[2] = tested on: soybean (Glycine max); test: Test B pre-/postemergence plant response; details: for plant injury at 125 g/ha: 125 g ai/ha
Method in brief: as §1

[3] = tested on: kochia (Kochia scoparia); test: Test B pre-/postemergence plant response; details: for pest or weed control at 31 g/ha: 31 g ai/ha; for pest or weed control at 125 g/ha: 125 g ai/ha
Method in brief: as §1

[4] = tested on: ragweed (common ragweed, Ambrosia elatior); test: Test B pre-/postemergence plant response; details: for pest or weed control at 125 g/ha: 125 g ai/ha
Method in brief: as §1

[5] = tested on: corn (Zea mays); test: Test B pre-/postemergence plant response; details: for Corn plant response rating (crop injury, 0 = no effect, 100 = complete kill) at 31 g/ha: 31 g ai/ha; for Corn plant response rating (crop injury, 0 = no effect, 100 = complete kill) at 125 g/ha: 125 g ai/ha
Method in brief: as §1

[6] = tested on: cocklebur (Xanthium strumarium); test: Test B pre-/postemergence plant response; details: for pest or weed control at 31 g/ha: 31 g ai/ha; for pest or weed control at 125 g/ha: 125 g ai/ha
Method in brief: as §1

[7] = tested on: barnyardgrass (Echinochloa crus-galli); test: Test B flooded paddy test; details: Echinochloa crus-galli, 360 h
Method in brief: (§2)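 Ratings are visual, 0–100 (100 = complete control), taken versus untreated controls 13 to 15 days after treatment in the greenhouse. Compound went straight into paddy water held 3 cm above soil, applied to 2-leaf-stage plants of four species.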

[8] = tested on: umbrella sedge (Cyperus difformis); test: Test B flooded paddy test; details: Cyperus difformis, 360 h
Method in brief: as §2

[9] = tested on: ducksalad (Heteranthera limosa); test: Test B flooded paddy test; details: Heteranthera limosa, 360 h
Method in brief: as §2

[10] = tested on: rice (Oryza sativa); test: Test B flooded paddy test; details: Oryza sativa
Method in brief: as §2

[11] = 62 g ai/ha, postemergence, 0 is no effect, 100 is complete control, 13 to 15 days
[12] = Preemergence, 250 g ai/ha, 0 to 100 scale

`O=C1CCCC(O)=C1C(=O)c1cnc(-c2cccnc2)n(-c2ccccc2)c1=O` [Compound 113, 5-[(2-hydroxy-6-oxo-1-cyclohexen-1-yl)carbonyl]-3-phenyl-2-(3-pyridinyl)-4(3H)-pyrimidone] showed a pest or weed control at 125 g/ha ([1]; post-emergence, Postemergence, scale 0 to 100 (0 no effect, 100 complete control)) of 90%, a pest or weed control at 250 g/ha ([1]; post-emergence, Postemergence, 250 g ai/ha, scale 0 to 100 (0 no effect, 100 complete control)) of 95% and a pest or weed control at 31 g/ha ([1]; pre-emergence, Preemergence, 31 g ai/ha, scale 0 to 100 (0 no effect, 100 complete control)) of 5%. For the same compound, the pest or weed control at 62 g/ha ([1]; pre-emergence, Preemergence, 62 g ai/ha, scale 0 to 100, 0 no effect, 100 complete control) was 40%, the pest or weed control at 125 g/ha ([1]; pre-emergence, Preemergence, scale 0 to 100, 0 no effect, 100 complete control) was 60% and the “Soybean plant response rating (0 to 100 scale)” value [2, 11] was 98. The plant injury at 125 g/ha ([2]; Glycine max, post-emergence, Postemergence, scale 0 to 100 (0 no effect, 100 complete control), read-out: Plant response rating, Soybean) was 98%, the plant injury at 250 g/ha ([2]; Glycine max, post-emergence, Postemergence, 250 g ai/ha, scale 0 to 100 (0 no effect, 100 complete control), read-out: Plant response rating, Soybean) was 98% and the plant injury at 31 g/ha ([2]; Glycine max, pre-emergence, Preemergence, 31 g ai/ha, scale 0 to 100 (0 no effect, 100 complete control), read-out: Plant response rating, Soybean) was 0%. The plant injury at 62 g/ha ([2]; Glycine max, pre-emergence, Preemergence, 62 g ai/ha, scale 0 to 100, 0 no effect, 100 complete control, read-out: Plant response rating, Soybean) was 65%, the plant injury at 125 g/ha ([2]; Glycine max, pre-emergence, Preemergence, scale 0 to 100, 0 no effect, 100 complete control, read-out: Plant response rating, Soybean) was 85% and the “Soybean plant response rating” value [2, 12] was 90. The “Kochia plant response rating (0 to 100 scale)” value [3, 11] was 100, the pest or weed control at 31 g/ha ([3]; Bassia scoparia, post-emergence, postemergence, scale 0 to 100, 0 is no effect, 100 is complete control, read-out: Plant response rating, Kochia) was 98% and the pest or weed control at 125 g/ha ([3]; Bassia scoparia, post-emergence, Postemergence, scale 0 to 100 (0 no effect, 100 complete control), read-out: Plant response rating, Kochia) was 100%. For the same compound, the pest or weed control at 250 g/ha ([3]; Bassia scoparia, post-emergence, Postemergence, 250 g ai/ha, scale 0 to 100 (0 no effect, 100 complete control), read-out: Plant response rating, Kochia) was 100%, the pest or weed control at 31 g/ha ([3]; Bassia scoparia, pre-emergence, Preemergence, scale 0 to 100 (0 no effect, 100 complete control), read-out: Plant response rating, Kochia) was 80% and the pest or weed control at 62 g/ha ([3]; Bassia scoparia, pre-emergence, Preemergence, 62 g ai/ha, scale 0 to 100 (0 no effect, 100 complete control), read-out: Plant response rating, Kochia) was 80%. For the same compound, the pest or weed control at 125 g/ha ([3]; Bassia scoparia, pre-emergence, Preemergence, scale 0 to 100, 0 no effect, 100 complete control, read-out: Plant response rating, Kochia) was 85%, the “Kochia plant response rating” value [3, 12] was 90 and the “Ragweed plant response rating (0 to 100 scale)” value [4, 11] was 95. The pest or weed control at 125 g/ha ([4]; Ambrosia artemisiifolia, post-emergence, 360 h, Postemergence, scale 0 to 100 (0 no effect, 100 complete control), read-out: Plant response rating, Ragweed) was 98%, the pest or weed control at 250 g/ha ([4]; Ambrosia artemisiifolia, post-emergence, 360 h, Postemergence, 250 g ai/ha, scale 0 to 100 (0 no effect, 100 complete control), read-out: Plant response rating, Ragweed) was 98% and the pest or weed control at 31 g/ha ([4]; Ambrosia artemisiifolia, pre-emergence, 360 h, Preemergence, 31 g ai/ha, scale 0 to 100 (0 no effect, 100 complete control), read-out: Plant response rating, Ragweed) was 55%. For the same compound, the pest or weed control at 62 g/ha ([4]; Ambrosia artemisiifolia, pre-emergence, 360 h, Preemergence, 62 g ai/ha, scale 0 to 100 (0 no effect, 100 complete control), read-out: Plant response rating, Ragweed) was 90%, the pest or weed control at 125 g/ha ([4]; Ambrosia artemisiifolia, pre-emergence, 360 h, Preemergence, scale 0 to 100, 0 no effect, 100 complete control, read-out: Plant response rating, Ragweed) was 95% and the “Ragweed plant response rating” value [4, 12] was 98. The “Corn plant response rating (0 to 100 scale)” value [5, 11] was 60, the “Corn plant response rating” value [5, 12] was 0 and the Corn plant response rating (crop injury, 0 = no effect, 100 = complete kill) at 31 g/ha ([5]; Zea mays, post-emergence, postemergence, scale 0 to 100, 0 is no effect, 100 is complete control) was 25%. For the same compound, the Corn plant response rating (crop injury, 0 = no effect, 100 = complete kill) at 125 g/ha ([5]; Zea mays, post-emergence, Postemergence, scale 0 to 100 (0 no effect, 100 complete control)) was 80%, the Corn plant response rating (crop injury, 0 = no effect, 100 = complete kill) at 250 g/ha ([5]; Zea mays, post-emergence, Postemergence, 250 g ai/ha, scale 0 to 100 (0 no effect, 100 complete control)) was 85% and the Corn plant response rating (crop injury, 0 = no effect, 100 = complete kill) at 31 g/ha ([5]; Zea mays, pre-emergence, Preemergence, scale 0 to 100 (0 no effect, 100 complete control)) was 0%. The Corn plant response rating (crop injury, 0 = no effect, 100 = complete kill) at 62 g/ha ([5]; Zea mays, pre-emergence, Preemergence, 62 g ai/ha, scale 0 to 100, 0 no effect, 100 complete control) was 0%, the Corn plant response rating (crop injury, 0 = no effect, 100 = complete kill) at 125 g/ha ([5]; Zea mays, pre-emergence, Preemergence, scale 0 to 100, 0 no effect, 100 complete control) was 0% and the “Cocklebur plant response rating (0 to 100 scale)” value [6, 11] was 95. The “Cocklebur plant response rating” value [6, 12] was 100, the pest or weed control at 31 g/ha ([6]; Xanthium strumarium, post-emergence, postemergence, scale 0 to 100, 0 is no effect, 100 is complete control, read-out: Plant response rating, Cocklebur) was 95% and the pest or weed control at 125 g/ha ([6]; Xanthium strumarium, post-emergence, Postemergence, scale 0 to 100 (0 no effect, 100 complete control), read-out: Plant response rating, Cocklebur) was 98%. It also gave a pest or weed control at 250 g/ha ([6]; Xanthium strumarium, post-emergence, Postemergence, 250 g ai/ha, scale 0 to 100 (0 no effect, 100 complete control), read-out: Plant response rating, Cocklebur) of 98%, a pest or weed control at 31 g/ha ([6]; Xanthium strumarium, pre-emergence, Preemergence, scale 0 to 100 (0 no effect, 100 complete control), read-out: Plant response rating, Cocklebur) of 45% and a pest or weed control at 62 g/ha ([6]; Xanthium strumarium, pre-emergence, Preemergence, 62 g ai/ha, scale 0 to 100, 0 no effect, 100 complete control, read-out: Plant response rating, Cocklebur) of 75%. The pest or weed control at 125 g/ha ([6]; Xanthium strumarium, pre-emergence, Preemergence, scale 0 to 100, 0 no effect, 100 complete control, read-out: Plant response rating, Cocklebur) was 90%, the pest or weed control at 250 g/ha ([7]; 250 g ai/ha, flooded paddy test, visual rating on 0 to 100 scale (0 no effect, 100 complete control) after 13 to 15 days, read-out: Plant response rating, Flood, Barnyardgrass) was 15% and the pest or weed control at 62 g/ha ([7]; Flood (flooded paddy test), 62 g ai/ha, scale of 0 to 100 where 0 is no effect and 100 is complete control, 13 to 15 days, read-out: Plant response rating, Barnyardgrass) was 10%. It also gave a pest or weed control at 250 g/ha ([8]; 250 g ai/ha, flooded paddy test, visual rating on 0 to 100 scale (0 no effect, 100 complete control) after 13 to 15 days, read-out: Plant response rating, Flood, Sedge, Umbrella) of 70%, a pest or weed control at 62 g/ha ([8]; Flood (flooded paddy test), 62 g ai/ha, scale of 0 to 100 where 0 is no effect and 100 is complete control, 13 to 15 days, read-out: Plant response rating, Sedge, Umbrella) of 40% and a pest or weed control at 250 g/ha ([9]; 250 g ai/ha, flooded paddy test, visual rating on 0 to 100 scale (0 no effect, 100 complete control) after 13 to 15 days, read-out: Plant response rating, Flood, Ducksalad) of 70%. The pest or weed control at 62 g/ha ([9]; Flood (flooded paddy test), 62 g ai/ha, scale of 0 to 100 where 0 is no effect and 100 is complete control, 13 to 15 days, read-out: Plant response rating, Ducksalad) was 25%, the plant injury at 250 g/ha ([10]; 250 g ai/ha, flooded paddy test, visual rating on 0 to 100 scale (0 no effect, 100 complete control) after 13 to 15 days, read-out: Plant response rating, Flood, Rice) was 0% and the plant injury at 62 g/ha ([10]; Flood (flooded paddy test), 62 g ai/ha, scale of 0 to 100 where 0 is no effect and 100 is complete control, 13 to 15 days, read-out: Plant response rating, Rice) was 0%.
